# According to patent US12318455B2, “Anti-HER2 antibody-drug conjugate and application thereof” (HANGZHOU ADCORIS BIOPHARMA CO., LTD., priority 2016, dated 2025):
# How the values were obtained:
# Assay type in all cases: cell-based
# SKBR-3 = assay: Tumor cell inhibition experiment (CCK-8), SKBR-3; conditions: SKBR-3, HER2 3+, 3 days, read-out: IC50 values (nM) of anti-HER2 antibody-drug conjugates to HER2-expressing tumor cells
# Experimental: (§1) This example examined the inhibitory activity of the antibody-drug conjugates of the present invention on HER2-positive cells. The tumor cell lines in this example were all purchased from ATCC, USA.
# (§2) The experimental steps are as follows:
# (§3) The cells were digested, collected by centrifugation, counted, and the cell liquid was diluted to 0.4-2.0×10^5 cells/ml, and 100 μl of said cell suspension was added to each well of a 96-well plate. The cells were cultured overnight in a 37° C. cell culture incubator, and ADC drugs with corresponding concentration was added the next day. The initial concentration of the drug was 1-15 μg/ml, and was diluted in 3-fold equal-gradient with a total of 9 concentration gradients. Finally, a set of zero-concentration cell were set as controls. After addition of drug, the cells were cultured for 3 days, and the drug-containing medium was sucked. 100 μl of 10% CCK-8 solution was added to each well, and incubated at 37° C. for 1-2 h, and then absorbance intensity of each well was detected at 490 nm with a microplate reader. The data was imported into a mapping software, the curve was fitted, and IC50 values were calculated.
# NCI-N87 = assay: Tumor cell inhibition experiment (CCK-8), NCI-N87; conditions: NCI-N87, HER2 3+, 3 days, read-out: IC50 values (nM) of anti-HER2 antibody-drug conjugates to HER2-expressing tumor cells
# Experimental: as §1, §2, §3
# OE-19 = assay: Tumor cell inhibition experiment (CCK-8), OE-19; conditions: OE-19, HER2 3+, 3 days, read-out: IC50 values (nM) of anti-HER2 antibody-drug conjugates to HER2-expressing tumor cells
# Experimental: as §1, §2, §3
# BT474 = assay: Tumor cell inhibition experiment (CCK-8), BT474; conditions: BT474, HER2 3+, 3 days, read-out: IC50 values (nM) of anti-HER2 antibody-drug conjugates to HER2-expressing tumor cells
# Experimental: as §1, §2, §3
# HCC1954 = assay: Tumor cell inhibition experiment (CCK-8), HCC1954; conditions: HCC1954, HER2 3+, 3 days, read-out: IC50 values (nM) of anti-HER2 antibody-drug conjugates to HER2-expressing tumor cells
# Experimental: as §1, §2, §3
# MDA453 = assay: Tumor cell inhibition experiment (CCK-8), MDA453; conditions: MDA453, HER2 2+, 3 days, read-out: IC50 values (nM) of anti-HER2 antibody-drug conjugates to HER2-expressing tumor cells
# Experimental: as §1, §2, §3
substance,measurement,setting,value
T-DM1,IC50,SKBR-3,0.114 nM
same,IC50,NCI-N87,0.548 nM
same,IC50,OE-19,0.099 nM
same,IC50,BT474,0.622 nM
same,IC50,HCC1954,0.159 nM
same,IC50,MDA453,0.259 nM
